Where no end group is shown, it is not given here.
Tests used:
[1] = test system: HSV-1 C-capsids; assay: Binding of GFP-HSV-1 C-capsids to nuclei of digitonin-permeabilized Vero cells (SR-SIM); format: cell-based
Method: This was verified with a fluorescently labeled nuclear localization signal (NLS), added to purified rat liver nuclei incubated with cytosolic extracts (as a source of soluble import factors) supplemented with an ATP regeneration system, see Supporting Materials for experimental description and S4A Fig. These controls were also reproduced with a digitonin-permeabilized cell assay, which accurately recapitulates capsid-nucleus binding and nuclear import in living cells; see Supporting Materials and data shown in S4B Fig. In agreement with observations in the isolated nuclei system (Fig 3B), we also confirmed via a digitonin-permeabilized cell assay that none of the three compounds interfered with capsid-NPC binding in cells. Attachment of GFP-capsids to nuclei was visualized with SR-SIM (S4C Fig). The addition of WGA prevented capsid binding, showing capsid-NPC binding specificity (S4C Fig).
To obtain cytosolic extracts as a source of soluble import factors, Vero cell monolayers (4 x 10^7 cells) were washed with ice-cold PBS and scraped off the plate into 5 ml of cold PBS. […] The samples were then processed for fluorescence imaging as described above. […]

[2] = test system: free dsDNA; assay: SAXS of free (bulk) DNA condensed by added compound; details: free dsDNA in TM-buffer, N/P ratio 1.5, 15, 23 and 37°C
Excerpt: To determine if our DNA condensing compounds target pressurized intracapsid DNA in HSV-1 virions, we developed a three-step SAXS assay. In the first step, we confirmed the ability of compounds DAB-Am-4, bPEI 600, and Arg^5+ to condense the dsDNA in solution. We measured DNA-DNA spacing (ds) in bulk DNA solution in TM-buffer (i.e. free DNA without the capsid), where DNA is condensed by the added compound. This bulk DNA ds-measurement allows for quick prescreening with an in-house SAXS to determine if compounds are capable of binding to dsDNA and reducing DNA-DNA spacing below the physiologic ds-value for DNA packaged in a viral capsid (ds* = 31Å for HSV-1). […] The Bragg spacing, dBr, and the actual distance between helices, ds, are related by ds = 2dBr/sqrt(3) (see details in Materials and Methods). […] Compound concentrations were scaled proportionally with DNA concentration in the sample to correspond to the N/P ratio of 1.5, where N provides the number of positively charged amine groups on the polyamine compound, and P provides the number of negatively charged phosphate groups on the DNA. An N/P ratio of ~1–1.5 was previously shown to be sufficient for DNA condensation with polycationic amines.
For bulk DNA measurements with in-house SAXS, concentrated polycation solutions were added to 1 mg/mL free DNA in small increments of concentration. […]

Compound | binding of GFP-HSV-1 C-capsids to nuclei of permeabilized cells [1] | DNA-DNA interaxial spacing ds [2]
RRRRR [Arg^5+] | not blocked | below 31 Å
NCCCN(CCCN)CCCCN(CCCN)CCCN [DAB-Am-4] | not blocked | below 31 Å
